From patent publication US6476010B2, “Method for increasing intestinal absorption of fat soluble vitamins in post-menopausal women and lower animals” (Hill's Pet Nutrition, priority 2000, dated 2002)

Tests used:
ovariectomized rats [1] = experiment: Lymphatic absorption of α-tocopherol after 5 weeks of dietary carnitine (mesenteric lymph duct cannulation); format: in vivo, rat; details: carnitine supplemented diet for 5 weeks
Description: Thirty two 10 weeks old female Sprague-Dawley rats weighing 208±8 g (Harlan Sprague Dawley, Indianapolis, Ind.) were housed and fed as described in Example 1. At the end of second week, at the average body weight of 240±9 g, the rats were ovariectomized under halothane anesthesia after 16 hours fasting. Initial (0 week) blood samples were taken from 6 randomly selected rats.
Immediately after surgery, rats were divided into the following two experimental groups as described in Example 1, i.e., one group was fed a diet supplemented with carnitine, and one control group. The normal food intake for both groups was about 15-16 g/day/rat.
At the end of the 5th week, Lymph duct cannulation was performed on each group having an average body weight of 340±15 g. Cannulation of the mesenteric lymph duct was performed, following 16 hours food deprivation, as described previously (Noh et al., supra). Briefly, after a midline abdominal incision was performed, the mesenteric lymph duct was cannulated with polyethylene tubing (SV 31 tubing, Dural Plastics, Auburn, Australia) by securing with a drop of cyanoacrylate glue (Krazy Glue, Columbus, Ohio) under halothane anesthesia (2.0% halothane in 2.01 oxygen/min). A silicone feeding catheter (Silastic medical grade tubing, Dow Coming, Midland, Mich.) was inserted into the gastric fundus region. The infusion catheter was exteriorized alongside the lymph cannula through the right flank. Cannulated rats were placed in individual restraining cages and allowed to recover for at least 20 hours in a warm recovery chamber kept at about 30° C. Immediately following surgery, glucose-phosphate buffered saline (PBS) (in mmol/l: 277 glucose, 6.75 Na2HPO4, 16.5 NaH2PO4, 115 NaCl, and 5 KCI; pH 6.7) was continuously infused through the duodenal cannula at 3.0 ml/h via a syringe pump (Harvard Apparatus, Model 935, South Natick, Mass.).
After postoperative recovery, rats were infused with a lipid emulsion containing 1 μCi of [carboxyl-^14C]-triolein (specific activity 112.0 mCi/mmol, DuPont NEN, Boston, Mass.), 565 μmol triolein (95%, Sigma Chemical, St. Louis, Mo.), 3.56 μmol α-tocopherol (all-rac-a-tocopherol, 97%, Aldrich Chemical, Milwaukee, Wis.), and 396 μmol sodium taurocholic acid in 24 ml of PBS. Lymph was collected hourly for 8 hours in pre-weighed conical centrifuge tubes containing 30 μg of n-propyl gallate and 4 mg of Na2EDTA in ice-filled beakers. After lymph collection, the rats were killed by cervical dislocation, and the livers were collected. The samples were stored at about −70° C. until analysis.
From the lipid extracted (Folch et al., supra), tissue total phospholipid was measured colorimetrically by the method of Reheja et al. (J Lipid Res 1973;14:695-697). Tissue total cholesterol was determined as described by Rudel et al. (J Lipid Res 1973;21:364-366). Alpha-tocopherol was determined as described by Zaspel et al (supra) and in Example 1 above. Statistical analyses were conducted as described in Example 1.

ovariectomized rats [2] = experiment: Liver levels and biliary secretion of α-tocopherol after 8 weeks of dietary carnitine (bile duct cannulation); format: in vivo, rat
Description: Thirty two 10 weeks old female Sprague-Dawley rats weighing 214±6 g (Harlan Sprague Dawley, Indianapolis, Ind.) were placed individually in plastic cages with stainless steel wire-bottoms in a windowless room at a controlled temperature of about 23° C. and subjected to a light-dark cycle with the light period from 3:30 pm to 3:30 am and the dark period from 3:30 am to 3:30 pm. The rats were acclimatized for 1 week with free access to the deionized water and ad libitum fed a zinc-adequate AIN-93G diet (Reeves et al., J Nutr 1993;123:1939-1951) formulated by Dyets, Inc. (Bethlehem, Pa., USA) with 7% soybean oil as a fat source. Zinc carbonate was added to provide the desired levels of zinc. At the end of the first week, at the average body weight of 230±12 g, the rats were ovariectomized under halothane anesthesia after 16 hours of fasting. Initial blood samples (week 0) were taken from 5 randomly selected rats. After 1 week of postoperative recovery, rats were divided into the following two experimental groups by matching body weight: One group of rats was fed a zinc-adequate AIN-93G diet containing α-tocopherol-stripped soybean oil; 150 ppm Sipernat® 50, which is hydrated silica available from Degussa Corporation, Ridgefield, N.J.; and supplemented with 150 mg/kg L-carnitine. A control group was fed the same diet, except that the 150 mg/kg of L-carnitine was substituted with 150 ppm of α-D-glucose. The normal food intake for both groups was around 15 g/day/rat. Blood samples were taken at the beginning of 1, 3, 5, 8 weeks from 5 randomly selected rats in each group. At the end of the 8th week, bile duct cannulation was performed on the rats in both groups having an average body weight of about 340±15 g. Cannulation of the common bile duct was performed, following 16 hours food deprivation, as described previously (Noh et al., J Nutr Biochem 1999;10:110-117). Briefly, after performing a midline abdominal incision, the common bile duct was cannulated with PE-10 tubing (Clay Adams, Sparks, Md.) under halothane anesthesia (2.0% halothane in 2.01 oxygen/min). A silicone feeding catheter (Silastic medical grade tubing, Dow Coming, Midland, Mich.) was inserted into the gastric fundus region. The infusion catheter was exteriorized alongside the bile cannula through the right flank. Cannulated rats were placed in individual restraining cages and allowed to recover for at least 20 hours in a warm recovery chamber kept at about 30° C. Immediately after surgery, glucose-phosphate buffered saline (PBS) (in mmol/l: 277 glucose, 6.75 Na2HPO4, 16.5 NaH2PO4, 115 NaCl, and 5 KCI; pH 6.7) was continuously infused through the duodenal cannula at 3.0 ml/h via a syringe pump (Harvard Apparatus, Model 935, South Natick, Mass.). After postoperative recovery, rats were infused with a lipid emulsion containing 565 μmol triolein (95%, Sigma Chemical, St. Louis, Mo.), and 396 μmol sodium taurocholic acid in 24 ml of PBS. Bile was collected hourly for 8 hours in pre-weighed conical centrifuge tubes containing 30 μg of n-propyl gallate in ice filled beakers. After bile collection, the rats were killed by cervical dislocation, and the livers were dissected. The samples were stored at about −70° C. until analysis. Lipids were extracted by Folch's method (Folch et al., J Biol Chem 1957;226:497-509). The content of α-tocopherol was determined as described by Zaspel et al. (Anal. Biochem. 1983;130:146-150). […]

[3] = significant difference vs control

## C[N+](C)(C)C[C@H](O)CC(=O)[O-] [carnitine, L-carnitine]
Ovariectomized rats [1]; lipid emulsion with 3.56 μmol α-tocopherol infused, P<0.05 vs control
  lymphatic absorption of α-tocopherol for 8 hours: 899±200 nmol/8 h
Ovariectomized rats [1]; lymph collected for 8 hours, no difference vs control
  lymph flow: 22.6±4.2 ml/8 hours
Ovariectomized rats [1]; lymph for 8 hours, P<0.05 vs control
  absorption of 14C-triolein: 53.5±4.0 % dose
Ovariectomized rats [1]; [3]
  ratio of lymph α-tocopherol/cholesterol: 82.7±17.1 nmol/μmol
  ratio of lymph α-tocopherol/phospholipid: 46.9±8.8 nmol/μmol
Ovariectomized rats [2]; liver, ovariectomized rats fed a carnitine supplemented diet, compared with control
  α-tocopherol concentration per 100 mg total lipid: significantly higher
Ovariectomized rats [2]; ovariectomized Sprague-Dawley rats, diet with 150 mg/kg L-carnitine for 8 weeks, bile collected for 8 hours, no difference vs control, mean±SD
  bile flow: 7.9±1.4 ml/8 hours
Ovariectomized rats [2]; ovariectomized rats, diet with 150 mg/kg L-carnitine for 8 weeks, P<0.05 vs control, mean±SD
  biliary secretion of α-tocopherol for 8 hours: 53.1 ± 9.3 nmol
Ovariectomized rats [2]; ovariectomized rats, diet with 150 mg/kg L-carnitine for 8 weeks, P=0.001 vs control
  ratio of liver α-tocopherol/phospholipid: 4.8±0.6 nmol/μmol
Ovariectomized rats [2]; ovariectomized rats, diet with 150 mg/kg L-carnitine for 8 weeks, significantly elevated vs control
  liver concentration of α-tocopherol: 129.6 ± 19.5 nmol/g
